Reference: patent publication US6903133B2, “Anticancer compounds” (Plantaceutica, Inc., priority 2002, dated 2005)

What follows are compounds tested on KB cells (assay: cytotoxicity against KB cells (sulforhodamine B assay)). Conditions: KB cells (nasopharyngeal carcinoma cells); result in words only.
Assay type: cell-based
Procedure: Podophyllotoxin derivatives of this invention can be preliminarily screened for their efficacy in treating cancer by in vitro assays. For example, podophyllotoxin derivatives can be tested for their cytotoxicity against KB cells (nasopharyngeal carcinoma). More specifically, a test compound can be added to a culture of KB cells and its IC50 (i.e., the concentration of the test compound which achieves a half-maximal inhibition of cell growth) is determined using the sulforhodamine B (a protein binding dye) assay as described in J.N.C.I. (1990) 82: 1107. The podophyllotoxin derivatives of this invention are also tested for their abilitives to inhibit DNA topoisomerase II in vitro as described in Cho et al. (1996 J. Med. Chem. 39: 1396) and to stimulate protein-linked DNA breaks (PLDB) in KB cells as described in Rowe et al. (1986 Cancer Res. 46:2021). DNA topoisomerase II is a well known target for cancer treatment drugs. See, e.g., MacDonald et al. (1991) DNA Topoisomerase in Cancer; Oxford University Press: New York.
A number of compounds of this invention were evaluated for cytotoxicity against KB cells, which are nasopharyngeal carcinoma cells. They were also tested for stimulation of cellular protein-linked DNA breaks (PLDB) using etoposide as a positive control. Etopside is a widely-used antineoplastic agent, see, e.g., Zhang et al. (1994) J. Med. Chem. 37: 446.
For `COc1cc([C@@H]2c3cc4c(cc3[C@@H](Nc3ncc([N+](=O)[O-])s3)[C@@H]3COC(=O)[C@H]23)OCO4)cc(OC)c1O` [Compound 49, 4′-O-demethyl-4β-(5″-nitro-2″-thiazolylamino)-4-desoxypodophyllotoxin], the “IC50 values against KB cells” value was “unexpectedly low”. `CCOC(=O)c1ccc(N[C@@H]2c3cc4c(cc3[C@@H](c3cc(OC)c(O)c(OC)c3)[C@H]3C(=O)OC[C@H]32)OCO4)nc1` [Compound 39] was tested, and the “IC50 values against KB cells” value was “unexpectedly low”. With `COc1cc([C@@H]2c3cc4c(cc3[C@@H](Nc3nc(COC(C)=O)cs3)[C@@H]3COC(=O)[C@H]23)OCO4)cc(OC)c1O` [Compound 36, 4′-O-demethyl-4β-[4″-(methyl-O-acetyl)-2″-thiazolylamino]-4-desoxypodophyllotoxin] the “IC50 values against KB cells” value was “unexpectedly low”. With `CCOC(=O)c1sc(N[C@@H]2c3cc4c(cc3[C@@H](c3cc(OC)c(O)c(OC)c3)[C@H]3C(=O)OC[C@H]32)OCO4)nc1C` [Compound 45, 4′-O-demethyl-4β-(5″-ethoxycarbonyl-4″-methyl-2″-thiazolylamino)-4-desoxypodophyllotoxin] the “IC50 values against KB cells” value was “unexpectedly low”.
